Reference: PMC11470957, “Principles of paralog-specific targeted protein degradation engaging the C-degron E3 KLHDC2” (Nature Communications, 2024)
Values joined by “and” are separate entries in the source; they are usually repeats but may differ in a detail not shown here. Identical values can stand only once.

How the values were obtained:
[1] = target: T1, KLHDC2^SBD (Homo sapiens, UniProt Q9Y2U9); test: Surface plasmon resonance binding to KLHDC2; design: KLHDC2^SBD (15-361) and its Avi-tagged counterpart were expressed in E. coli Rosetta2 cells; 6XHis-MBP (N, cleaved yes); made in house; host or cells: E. coli Rosetta2; details: for SPR Rmax / SPR dissociation constant kd: n=1; for Kd: read-out: SPR Kd
T1 sequence (Q9Y2U9 15-361): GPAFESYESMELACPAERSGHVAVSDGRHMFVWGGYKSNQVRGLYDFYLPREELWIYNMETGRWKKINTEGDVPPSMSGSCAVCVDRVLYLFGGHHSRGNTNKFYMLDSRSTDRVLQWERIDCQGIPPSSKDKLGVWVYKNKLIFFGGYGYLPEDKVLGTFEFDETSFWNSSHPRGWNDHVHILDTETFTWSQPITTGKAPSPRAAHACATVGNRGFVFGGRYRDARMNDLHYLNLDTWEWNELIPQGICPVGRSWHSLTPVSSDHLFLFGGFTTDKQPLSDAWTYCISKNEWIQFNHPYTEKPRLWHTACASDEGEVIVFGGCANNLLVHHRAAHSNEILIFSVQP
Description: Surface plasmon resonance (SPR) was utilized to determine kinetic parameters and binding affinity of KLHDC2 substrates using a PioneerFE (Sartorius). Experiments were carried out in 20 mM Tris, 200 mM NaCl, 1 mM TCEP, 0.01% Brij35, and 1% DMSO at pH 7.4 as a running buffer with a 100 µL/min flow rate at 20 °C.
The 10xHis-KLHDC2 was immobilized onto a Ni-NTA-coated biosensor chip (HisCap). The chip surface was conditioned using 10 mM HCl, 50 mM NaOH, and 0.1% SDS (50 µL at 100 µL/min) twice, followed by a 100 mM Tris buffer wash (100 µL at 100 µL/min). The surface was then activated using an injection of 0.5 M EDTA (125 µL at 25 µL/min) followed by an injection of 5 mM NiCl2 (125 µL at 25 µL/min). […] Channel 2 was treated identically to channel 3 except for protein loading to be used as a reference channel. […] 100% of the loop was injected with a 300 s dissociation time. All samples were run in triplicate. Data was analyzed using Qdat software and fit to a simple 1-site model.
The SPR experiments were performed to determine the binding affinities (KD) of KLHDC2-SJ46411 and KLHDC2-SJ46418 complexes. All the experiments were performed using a Biacore 1S+ instrument. […] The running buffer consisted of 20 mM Tris pH 7.5, 200 mM NaCl, 1 mM TCEP, 0.01% Brij35, and 4% DMSO. […] In brief, before the immobilization, the sensor chip surface was conditioned by injecting a mixture of (3:1 v/v) 8 M guanidine hydrochloride and 1 M NaOH at a flow rate of 5 μL/min for 2 min for two times. Then, running buffer was injected at a 30 μl/min flow rate for 1 min 3 times. Next, the Biotin CAPture reagent was injected at a flow rate of 2 μl/min for 5 min. Then, biotinylated KLHDC2 was only injected onto the active channel (channel 2).
Sample preparation was carried out precisely the same as SJ46411. All experiments were performed using a multi-cycle analysis method with a 30 μl/min flow rate, 120 S association, and 240 s dissociation time. All data were reference subtracted and corrected for DMSO mismatch. The sensorgrams were analyzed using Biacore insight evaluation software, and KD was determined using the 1:1 steady-state affinity fitting. Finally, all the analyzed data was replotted using GraphPad Prizm 10 software.

[2] = target: BRD2 (Homo sapiens, UniProt P25440); test: Western blot of BRD2 levels after cellular dosing
Chain of BRD2 (P25440 whole entry): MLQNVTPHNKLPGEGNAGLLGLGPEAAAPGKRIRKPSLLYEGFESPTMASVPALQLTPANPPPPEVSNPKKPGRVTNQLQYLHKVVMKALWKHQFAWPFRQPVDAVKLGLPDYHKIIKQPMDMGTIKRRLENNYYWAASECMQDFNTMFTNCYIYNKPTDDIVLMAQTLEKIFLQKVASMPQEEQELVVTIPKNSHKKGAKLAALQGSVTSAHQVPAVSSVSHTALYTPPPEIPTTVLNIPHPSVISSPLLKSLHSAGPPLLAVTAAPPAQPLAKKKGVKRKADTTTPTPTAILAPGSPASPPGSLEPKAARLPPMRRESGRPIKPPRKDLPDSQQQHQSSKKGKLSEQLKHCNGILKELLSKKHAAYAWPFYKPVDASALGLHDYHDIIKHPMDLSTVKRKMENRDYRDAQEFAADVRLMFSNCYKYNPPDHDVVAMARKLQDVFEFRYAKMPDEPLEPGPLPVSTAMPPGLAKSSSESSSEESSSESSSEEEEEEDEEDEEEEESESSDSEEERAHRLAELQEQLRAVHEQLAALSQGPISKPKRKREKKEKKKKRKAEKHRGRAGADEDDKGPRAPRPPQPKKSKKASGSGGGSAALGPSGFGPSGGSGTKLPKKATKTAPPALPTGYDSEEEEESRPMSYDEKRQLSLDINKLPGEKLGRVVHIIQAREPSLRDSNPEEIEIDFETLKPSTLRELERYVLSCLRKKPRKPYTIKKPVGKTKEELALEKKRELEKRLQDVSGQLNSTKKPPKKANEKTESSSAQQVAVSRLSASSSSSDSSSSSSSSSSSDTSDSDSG

Structure (SMILES): O=C(O)CNC(=O)Cc1csc(-c2ccccc2F)n1 [SJ6145]
- SPR Rmax [1]: 8.25 +/- 0.01
- SPR dissociation constant kd [1]: 4.19 s⁻¹
- Kd [1]: 16900 nM

Structure (SMILES): COCOc1ccc(-c2nc(CC(=O)NCC(=O)O)cs2)c(Cl)c1 [SJ10278]
- SPR Rmax [1]: 11.33 +/- 0.02
- SPR dissociation constant kd [1]: 2.03 s⁻¹
- Kd [1]: 8800 nM and 8790 nM

Structure (SMILES): O=C(O)CNC(=O)Cc1csc(-c2ccc3ccccc3c2)n1 [SJ46411]
- SPR Response ([1]; FigS2d, analyte 0.146484 μM): 4.647 RU
- SPR Response ([1]; FigS2d, analyte 0.292969 μM): 7.784 RU
- SPR Response ([1]; FigS2d, analyte 0.585938 μM): 11.5982 RU
- SPR Response ([1]; FigS2d, analyte 2.34375 μM): 17.8875 RU
- SPR Response ([1]; FigS2d, analyte 4.6875 μM): 19.5092 RU
- SPR Response ([1]; FigS2d, analyte 9.375 μM): 20.5795 RU
- SPR Rmax [1]: 24.50 +/- 0.30
- Kd [1]: 500 nM and 526 nM

Structure (SMILES): COCCOc1cccc2ccc(-c3nc(CC(=O)NCC(=O)O)cs3)cc12 [SJ46418]
- Raw SPR response ([1]; 0.0976562 uM, time -29 s): 0.0989
- Raw SPR response ([1]; 0.0976562 uM, time -29.1 s): 0.1275
- Raw SPR response ([1]; 0.0976562 uM, time -29.2 s): 0.1501
- Raw SPR response ([1]; 0.0976562 uM, time -29.3 s): 0.2497
- Raw SPR response ([1]; 0.195312 uM, time -29 s): 0.0952
- Raw SPR response ([1]; 0.195312 uM, time -29.1 s): 0.1196
- Raw SPR response ([1]; 0.195312 uM, time -29.2 s): 0.1572
- Raw SPR response ([1]; 0.195312 uM, time -29.3 s): 0.2514
- Raw SPR response ([1]; 0.390625 uM, time -29 s): 0.1406
- Raw SPR response ([1]; 0.390625 uM, time -29.1 s): 0.1812
- Raw SPR response ([1]; 0.390625 uM, time -29.2 s): 0.2616
- Raw SPR response ([1]; 0.390625 uM, time -29.3 s): 0.3693
- Raw SPR response ([1]; 0.78125 uM, time -29 s): 0.1584
- Raw SPR response ([1]; 0.78125 uM, time -29.1 s): 0.1946
- Raw SPR response ([1]; 0.78125 uM, time -29.2 s): 0.2669
- Raw SPR response ([1]; 0.78125 uM, time -29.3 s): 0.3893
- Raw SPR response ([1]; 1.5625 uM, time -29 s): 0.1505
- Raw SPR response ([1]; 1.5625 uM, time -29.1 s): 0.1878
- Raw SPR response ([1]; 1.5625 uM, time -29.2 s): 0.2713
- Raw SPR response ([1]; 1.5625 uM, time -29.3 s): 0.3827
- Raw SPR response ([1]; 2.34375 uM, time -29 s): 0.1726
- Raw SPR response ([1]; 2.34375 uM, time -29.1 s): 0.2365
- Raw SPR response ([1]; 2.34375 uM, time -29.2 s): 0.3258
- Raw SPR response ([1]; 2.34375 uM, time -29.3 s): 0.5246
- Raw SPR response ([1]; 3.125 uM, time -29 s): 0.1584
- Raw SPR response ([1]; 3.125 uM, time -29.1 s): 0.2098
- Raw SPR response ([1]; 3.125 uM, time -29.2 s): 0.2855
- Raw SPR response ([1]; 3.125 uM, time -29.3 s): 0.3398
- Raw SPR response ([1]; 4.6875 uM, time -29 s): 0.1506
- Raw SPR response ([1]; 4.6875 uM, time -29.1 s): 0.2195
- Raw SPR response ([1]; 4.6875 uM, time -29.2 s): 0.3095
- Raw SPR response ([1]; 4.6875 uM, time -29.3 s): 0.4038
- Raw SPR response ([1]; 12.5 uM, time -29 s): 0.1017
- Raw SPR response ([1]; 12.5 uM, time -29.1 s): 0.1107
- Raw SPR response ([1]; 12.5 uM, time -29.2 s): 0.1281
- Raw SPR response ([1]; 12.5 uM, time -29.3 s): 0.1417
- Raw SPR data, fit ([1]; 0.09765625 Fit, time -29 s): -0.002337
- Raw SPR data, fit ([1]; 0.09765625 Fit, time -29.1 s): -0.002345
- Raw SPR data, fit ([1]; 0.09765625 Fit, time -29.2 s): -0.002354
- Raw SPR data, fit ([1]; 0.09765625 Fit, time -29.3 s): -0.002362
- Raw SPR data, fit ([1]; 0.1953125Fit uM, time -29 s): 0.003849
- Raw SPR data, fit ([1]; 0.1953125Fit uM, time -29.1 s): 0.003863
- Raw SPR data, fit ([1]; 0.1953125Fit uM, time -29.2 s): 0.003876
- Raw SPR data, fit ([1]; 0.1953125Fit uM, time -29.3 s): 0.003889
- Raw SPR data, fit ([1]; 0.390625fit, time -29 s): 0.007264
- Raw SPR data, fit ([1]; 0.390625fit, time -29.1 s): 0.007289
- Raw SPR data, fit ([1]; 0.390625fit, time -29.2 s): 0.007315
- Raw SPR data, fit ([1]; 0.390625fit, time -29.3 s): 0.00734
- Raw SPR data, fit ([1]; 0.78125 fit, time -29 s): 0.01901
- Raw SPR data, fit ([1]; 0.78125 fit, time -29.1 s): 0.01908
- Raw SPR data, fit ([1]; 0.78125 fit, time -29.2 s): 0.01915
- Raw SPR data, fit ([1]; 0.78125 fit, time -29.3 s): 0.01921
- Raw SPR data, fit ([1]; 1.5625 fit, time -29 s): 0.01693
- Raw SPR data, fit ([1]; 1.5625 fit, time -29.1 s): 0.01699
- Raw SPR data, fit ([1]; 1.5625 fit, time -29.2 s): 0.01704
- Raw SPR data, fit ([1]; 1.5625 fit, time -29.3 s): 0.0171
- Raw SPR data, fit ([1]; 2.34375fit, time -29 s): 0.02325
- Raw SPR data, fit ([1]; 2.34375fit, time -29.1 s): 0.02333
- Raw SPR data, fit ([1]; 2.34375fit, time -29.2 s): 0.02341
- Raw SPR data, fit ([1]; 2.34375fit, time -29.3 s): 0.0235
- Raw SPR data, fit ([1]; 3.125 fit, time -29 s): 0.02052
- Raw SPR data, fit ([1]; 3.125 fit, time -29.1 s): 0.02059
- Raw SPR data, fit ([1]; 3.125 fit, time -29.2 s): 0.02066
- Raw SPR data, fit ([1]; 3.125 fit, time -29.3 s): 0.02074
- Raw SPR data, fit ([1]; 4.6875 fit, time -29 s): 0.02316
- Raw SPR data, fit ([1]; 4.6875 fit, time -29.1 s): 0.02324
- Raw SPR data, fit ([1]; 4.6875 fit, time -29.2 s): 0.02332
- Raw SPR data, fit ([1]; 4.6875 fit, time -29.3 s): 0.0234
- Raw SPR data, fit ([1]; 12.5 fit, time -29 s): 0.01922
- Raw SPR data, fit ([1]; 12.5 fit, time -29.1 s): 0.01929
- Raw SPR data, fit ([1]; 12.5 fit, time -29.2 s): 0.01935
- Raw SPR data, fit ([1]; 12.5 fit, time -29.3 s): 0.01942
- SPR Response ([1]; FigS3d, analyte 0.0977 μM): 0.48 RU
- SPR Response ([1]; FigS3d, analyte 0.195 μM): 0.7348 RU
- SPR Response ([1]; FigS3d, analyte 0.391 μM): 1.4491 RU
- SPR Response ([1]; FigS3d, analyte 0.781 μM): 2.3401 RU
- SPR Response ([1]; FigS3d, analyte 1.56 μM): 3.3797 RU
- SPR Response ([1]; FigS3d, analyte 2.34 μM): 3.8756 RU
- SPR Response ([1]; FigS3d, analyte 4.69 μM): 4.4852 RU
- SPR Response ([1]; FigS3d, analyte 12.5 μM): 5.3052 RU
- SPR Rmax [1]: 5.70 +/- 0.20
- Kd [1]: 1000 nM and 983 nM

Structure (SMILES): Cc1sc2c(c1C)C(c1ccc(Cl)cc1)=N[C@@H](CC(=O)N1CCN(CCOc3cccc4ccc(-c5nc(CC(=O)NCC(=O)O)cs5)cc34)CC1)c1nnc(C)n1-2 [SJ46421]
- BRD2 level, Western blot quantification (DMSO = 100) ([2]; Fig 6b, KO/Rescue, 5 uM): 112.267 and 101.949
- BRD2 level, Western blot quantification (DMSO = 100) ([2]; Fig 6b, U2OS, 5 uM): 136.72 and 118.225
- BRD2 level, Western blot quantification (DMSO = 100) ([2]; Fig S6a, 293T cells, 2.5 uM): 72.5135 and 88.7213
- BRD2 level, Western blot quantification (DMSO = 100) ([2]; Fig S6a, 293T cells, 5 uM): 75.5009 and 85.1412
- BRD2 level, Western blot quantification (DMSO = 100) ([2]; Fig S6b, MDA-MB468 Cells, 10 uM): 62.2331 and 83.5917
